Measured values taken from US10220029B2, “Pharmaceutical composition comprising glutarimide derivatives and use thereof in the treatment of eosinophilic diseases” (OBSCHESTVO S ORGANICHENNOI OTVETSTVENNOSTIYU …, priority 2013, dated 2019).
Marks after values point to notes of the source that are not given here.

Legend:
Assay type in all cases: in vivo, guinea pig
[1] = system: model of leukotriene-induced eosinophilic lung inflammation in guinea pigs; experiment: Content of cell elements in BAL in the model of leukotriene-induced eosinophilic lung inflammation in guinea pigs; conditions: four times, BAL 48 hours after LTD4, n = 8
Source text: The model of leukotriene-induced eosinophilic lung inflammation in guinea pigs was realized by a standard method [Underwood DC1, Osborn R R, Newsholme S J, Torphy T J, Hay D W. Persistent airway eosinophilia after leukotriene (LT) D4 administration in the guinea pig: modulation by the LTD4 receptor antagonist, pranlukast, or an interleukin-5 monoclonal antibody// Am J Respir Crit Care Med. 1996 October; 154(4 Pt 1):850-7]. A solution of leukotriene D4 (LTD4, Cayman Chemical, USA) at a concentration of […] (a flow rate of 250 mL/hr) was inhaled to male guinea pigs (250-300 g) under conditions of a double-chamber plethysmograph (Emka Technologies, France) for one minute. The studied compound was administered to the animals by the intragastric route four times: 24 hours and 1 hour before and 24 hours and 45 hours after the inhalation of LTD4. The reference preparation, montelukast (0.8 mg/kg), was administered one time by the intragastric route one hour before the inhalation of LTD4. Bronchoalveolar lavage was taken 48 hours after the inhalation of LTD4, and the total lymphocyte count and leukocyte formula were determined in the lavage. The number of guinea pigs in a group was 8.

[2] = system: model of allergic rhinitis in guinea pigs; experiment: Content of cell elements in the nasal lavage in the model of allergic rhinitis in guinea pigs; conditions: 14 mg/kg intragastric, 3 times; nasal lavage 24 hours after last ovalbumin; n = 8
Description: (§1) The model of allergic rhinitis in guinea pigs was realized by a standard method [Vishnu N. Thakare, M. M. Osama, Suresh R. Naik. […] 2013 September; 17(1):18-25].
(§2) Guinea pigs (250-300 g) were immunized with 4-time (on days 0, 7, 14, and 21) intragastric administration of ovalbumin (100 μg/pig) and aluminium hydroxide (5 mg/pig), both of which were diluted and suspended in a physiological saline solution. […], a solution of ovalbumin (60 mg/mL) was administered intranasally to each nostril of the animals at a dose 20 μL. On day 35, the animals received subcutaneously an ovalbumin solution (200 μg/mL, 25 μL); the animal back was previously shaved in the site of administration. Swelling and redness at the injection site served as a support of sensibilisation. On day 42 of the study, an ovalbumin solution (60 mg/mL, 20 μL/nostril) was administered intranasally. A group of pseudoimmunized animals was formed to control the formation of exactly allergic inflammation: on days 0, 7, 14, and 21, the pigs received a solution of aluminium hydroxide (5 mg/pig), and on days 28 and 35, they received a physiological saline solution, and on day 42, a solution of ovalbumin (60 mg/mL, 20 μL/nostril).
(§3) The studied compounds (14 mg/kg) were administered 3 times by the intragastric route: 48, 24, and 1 hour before the last administration of ovalbumin. The reference preparation, dexamethasone, was administered one time by the intragastric route, 3 hours before the last intranasal administration of ovalbumin.
(§4) Clinical manifestations, such as the number of sneezes and nose scratchings, were registered for 2 hours after the last administration of ovalbumin. Nasal lavage was taken 24 hours after the last administration of ovalbumin, and in this lavage, the total lymphocyte count and leukocyte formula were determined. The number of guinea pigs in a group was 8.

[3] = system: model of bronchial asthma in guinea pigs; experiment: Content of cell elements in the blood in the model of bronchial asthma in guinea pigs; conditions: Table 6 Experiment No. 1, 10 times, n = 8
Description: Bronchial asthma in guinea pigs was induced by a standard method [Ricciardolo F L, Nijkamp F, De Rose V, Folkerts G. The guinea pig as an animal model for asthma// Current Drug Targets. 2008 June; 9(6):452-65]. The animals were immunized by one parenteral administration of 0.5 mL of a solution comprising 100 μg/mL ovalbumin (Sigma) and 100 mg/mL aluminium hydroxide. Intact animals received a physiological saline solution in an amount of 0.5 mL.
On days 29, 30 and 31, hyperactivity of the respiratory airways was provoked by inhalation administration of ovalbumin in ascending concentrations of 0.1, 0.3, and 0.5 mg/mL on days 1, 2, and 3 of the provocation, respectively. The inhalation lasted 5 minutes or until asphyxia symptoms became apparent (fall to one side). On day 32, the animals received a challenging dose of ovalbumin (1 mg/mL) for 5 minutes, while assessing a bronchospastic reaction.
The studied compounds were administered to the animals once daily every day for 6 or 10 days; the administration was terminated two days before the administration of the challenging dose of antigen.
The bronchoalveolar lavage (BAL) and cardiac cavity blood were derived from the animals 24 hours after administration of the challenging dose. The BAL was collected under anesthesia by lavaging the lungs with 5 mL of a physiological saline solution heated to 37° C. through the trachea, using a syringe dosing device.
The blood was analyzed with a hemocytometer to determine leykoformula.
The study comprised 3 experiments, wherein the first one was directed to the evaluation of the effect of claimed compounds 1-6 on the cell composition of the BAL, the second and the third experiments were aimed at evaluating the effect of compounds 1 and 2 on the cell composition of the BAL, the cell composition of the blood, and on the bronchospasm severity.

[4] = system: model of allergic rhinitis in guinea pigs; experiment: Clinical manifestations of allergic rhinitis in guinea pigs (sneezes, nose scratchings); conditions: 14 mg/kg intragastric, 3 times; 2 hours after last ovalbumin; n = 8
Description: as §1, §2, §3, §4

Compound: O=C1CCCC(=O)N1CCc1cnc[nH]1 [Compound 1, 1-(2-(1H-imidazol-4-yl)ethyl)piperidine-2,6-dione]
- Eosinophils, content of cell elements in 1 μL of BAL ([1]; 0.14 mg/kg intragastric): 916 ± 144*& in 1 μL of BAL
- Leukocytes, content of cell elements in 1 μL of BAL ([1]; 0.14 mg/kg intragastric): 2638 ± 463*& in 1 μL of BAL
- Lymphocytes, content of cell elements in 1 μL of BAL ([1]; 0.14 mg/kg intragastric): 112 ± 27 in 1 μL of BAL
- Macrophages, content of cell elements in 1 μL of BAL ([1]; 0.14 mg/kg intragastric): 1360 ± 323 in 1 μL of BAL
- Neutrophils, content of cell elements in 1 μL of BAL ([1]; 0.14 mg/kg intragastric): 249 ± 50 in 1 μL of BAL
- Eosinophils, content of cell elements in 1 μL of BAL ([1]; 1.4 mg/kg intragastric): 856 ± 288*& in 1 μL of BAL
- Leukocytes, content of cell elements in 1 μL of BAL ([1]; 1.4 mg/kg intragastric): 3413 ± 1022 in 1 μL of BAL
- Lymphocytes, content of cell elements in 1 μL of BAL ([1]; 1.4 mg/kg intragastric): 144 ± 89 in 1 μL of BAL
- Macrophages, content of cell elements in 1 μL of BAL ([1]; 1.4 mg/kg intragastric): 2134 ± 705 in 1 μL of BAL
- Neutrophils, content of cell elements in 1 μL of BAL ([1]; 1.4 mg/kg intragastric): 279 ± 97 in 1 μL of BAL
- Eosinophils, content of cell elements in 1 μL of BAL ([1]; 14 mg/kg intragastric): 580 ± 124*& in 1 μL of BAL
- Leukocytes, content of cell elements in 1 μL of BAL ([1]; 14 mg/kg intragastric): 2250 ± 373*& in 1 μL of BAL
- Lymphocytes, content of cell elements in 1 μL of BAL ([1]; 14 mg/kg intragastric): 71 ± 28 in 1 μL of BAL
- Macrophages, content of cell elements in 1 μL of BAL ([1]; 14 mg/kg intragastric): 1444 ± 258 in 1 μL of BAL
- Neutrophils, content of cell elements in 1 μL of BAL ([1]; 14 mg/kg intragastric): 155 ± 36 in 1 μL of BAL
- Eosinophils, content of cell elements in 1 μL of nasal lavage [2]: 521 ± 129& in 1 μL of nasal lavage
- Leukocytes, content of cell elements in 1 μL of nasal lavage [2]: 1300 ± 254& in 1 μL of nasal lavage
- Lymphocytes, content of cell elements in 1 μL of nasal lavage [2]: 6 ± 6 in 1 μL of nasal lavage
- Macrophages, content of cell elements in 1 μL of nasal lavage [2]: 405 ± 130 in 1 μL of nasal lavage
- Neutrophils, content of cell elements in 1 μL of nasal lavage [2]: 243 ± 58*& in 1 μL of nasal lavage
- Banded neutrophils in the blood ([3]; 0.045 mg/kg): 0.31 ± 0.10 10^9/L
- Basophils in the blood ([3]; 0.045 mg/kg): 0 ± 0 10^9/L
- Cytosis in the blood ([3]; 0.045 mg/kg): 9.03 ± 1.40& 10^9/L
- Eosinophils in the blood ([3]; 0.045 mg/kg): 0.19 ± 0.04& 10^9/L
- Lymphocytes in the blood ([3]; 0.045 mg/kg): 4.80 ± 0.84* 10^9/L
- Monocytes in the blood ([3]; 0.045 mg/kg): 0.29 ± 0.08 10^9/L
- Segmented neutrophils in the blood ([3]; 0.045 mg/kg): 2.92 ± 0.65 10^9/L
- Banded neutrophils in the blood ([3]; 0.14 mg/kg): 0.19 ± 0.05& 10^9/L
- Basophils in the blood ([3]; 0.14 mg/kg): 0 ± 0 10^9/L
- Cytosis in the blood ([3]; 0.14 mg/kg): 9.11 ± 1.07*& 10^9/L
- Eosinophils in the blood ([3]; 0.14 mg/kg): 0.09 ± 0.03& 10^9/L
- Lymphocytes in the blood ([3]; 0.14 mg/kg): 5.25 ± 0.89* 10^9/L
- Monocytes in the blood ([3]; 0.14 mg/kg): 0.33 ± 0.06* 10^9/L
- Segmented neutrophils in the blood ([3]; 0.14 mg/kg): 2.23 ± 0.58& 10^9/L
- Banded neutrophils in the blood ([3]; 14 mg/kg): 0.27 ± 0.06* 10^9/L
- Basophils in the blood ([3]; 14 mg/kg): 0 ± 0 10^9/L
- Cytosis in the blood ([3]; 14 mg/kg): 8.90 ± 0.25*& 10^9/L
- Eosinophils in the blood ([3]; 14 mg/kg): 0.13 ± 0.04& 10^9/L
- Lymphocytes in the blood ([3]; 14 mg/kg): 4.45 ± 0.25* 10^9/L
- Monocytes in the blood ([3]; 14 mg/kg): 0.33 ± 0.06* 10^9/L
- Segmented neutrophils in the blood ([3]; 14 mg/kg): 3.66 ± 0.22* 10^9/L
- Number of nose scratchings/2 hours [4]: 13.9 ± 2.6 &
- Number of sneezes/2 hours [4]: 5.9 ± 1.1 &
